{"source": "patent US7416864B2", "about": "“Method for treating dyskinesia” (Schwarz Pharma AG, priority 2004, dated 2008)", "test_system": "Reserpine-Induced Tardive Dyskinesia in Mice", "test": "Reserpine-induced tardive dyskinesia in mice, vacuous chewing movements (VCM) count", "format": "in vivo", "conditions": "for VCM frequency per 10 min. Mean ± S.E.M.: 1 hour post-administration, male CD1 mice", "protocol": "Male CD1 mice (Charles River Laboratories, France), about 3 month-old were used. During the acclimatization period, animals were housed 5 per cage, in Makrolon type IlIl cages, in the animal room (temperature: 20±2° C., humidity: minimum 45%, air changes: >12 per hour, light/dark cycle of 12 h/12 h [on at 7:00 A.M:]. Animals were allowed a minimum of 5 days period before experiment for acclimatization.\nReserpine (Sigma) was dissolved in glacial acetic acid, diluted in water and administered s.c. at 1 mg/kg. 2 injections were given separated by 48 h. SPM 927 was studied at 3 doses (3, 10 and 30 mg/kg; i.p.) given as a single injection. Clonazepam was administered at 1 mg/kg, i.p. (3).\nReserpine was given twice (Day 1 and Day 3) and SPM 927 was administered 24 h after the last injection of reserpine (Day 4). Behavioral assessment was carried out 1 hour after drug injection (for 10 min). For the behavioral assessment, animals were placed in a plexiglass cage and after 5 min period of habituation, vacuous chewing movements (VCM) were counted for 10 min. VCM occurring during a grooming period were not taken into account.\nResults are expressed as means±S.E.M.s of ten individual values. Statistical analyses was done with ANOVA (one way) and Dunnett's t-test. Significance was considered as p<0.05.", "note": "“Also recorded” adds a separate entry of the source."}
{"smiles": "COC[C@@H](NC(C)=O)C(=O)NCc1ccccc1", "note": "[SPM 927, (R)-2-acetamide-N-benzyl-3-methoxypropionamide]", "values": [{"measurement": "effect on reserpine-induced dyskinesia (in words)", "setting": "3 mg/kg i.p., lowest dose", "result": "little or no effect"}, {"measurement": "effect on number of vacuous chewing movements (in words)", "setting": "10 mg/kg i.p.", "result": "reduced the number of vacuous chewing movements"}, {"measurement": "effect on number of vacuous chewing movements (in words)", "setting": "30 mg/kg i.p., highest dose, statistically significant (p<0.05 versus vehicle group)", "result": "reduced the number of vacuous chewing movements"}, {"measurement": "VCM frequency per 10 min. Mean ± S.E.M.", "setting": "Reserpine 1 mg/kg s.c. + SPM 927 3 mg/kg i.p., reserpine + vehicle group 41.4 ± 6.4", "result": "48.6 ± 10.6", "unit": "per 10 min"}, {"measurement": "VCM frequency per 10 min. Mean ± S.E.M.", "setting": "Reserpine 1 mg/kg s.c. + SPM 927 10 mg/kg i.p., reserpine + vehicle group 41.4 ± 6.4", "result": "26.6 ± 5.7", "unit": "per 10 min"}, {"measurement": "VCM frequency per 10 min. Mean ± S.E.M.", "setting": "Reserpine 1 mg/kg s.c. + SPM 927 30 mg/kg i.p., p < 0.05 versus reserpine + vehicle group (41.4 ± 6.4)", "result": "23.9 ± 7.9", "unit": "per 10 min"}, {"measurement": "overall effect on reserpine-induced tardive dyskinesia / vacuous chewing movements (in words)", "setting": "mice, no dose stated", "result": "attenuates reserpine induced vacuous chewing movements; also recorded: significant efficacy in reducing tardive dyskinesia"}]}
